Several values for one entry are separate records, joined by “and”; a condition that tells them apart may be missing. Equal values may be shown once. Read-outs that look alike come from different tables or passages of the source. Where only a bound is given, the exact number is not on record here.

For orientation: IC50 means the point on the concentration scale where inhibition reaches its midpoint. For orientation: Ki means a measure of affinity in units of concentration, obtained from inhibition or displacement. Usually EC50 stands for the midpoint of the concentration-response curve.

The subject of test [1] is CD-1 mice. The note with it: male CD-1 mice.
Test [2] concerns the target T1, Dopamine Transporter (DAT) (Homo sapiens, UniProt Q01959).
T1 construct: HA (N); host or cells: HEK293 (ATCC CRL-1573), electroporated, G418-selected population
The test can be described thus: cell-based. The conditions noted are these: for Emax at 10 µM: read-out: DAT IMAX, in parentheses: maximum efficacy at 10 μM. It is filed as cell-based.

Test [3] deals with T2, Norepinephrine Transporter (NET) (Homo sapiens, UniProt P23975).
T2 construct: HA (N); host or cells: HEK293 (ATCC CRL-1573), electroporated, G418-selected population
T2 sequence (P23975 whole entry): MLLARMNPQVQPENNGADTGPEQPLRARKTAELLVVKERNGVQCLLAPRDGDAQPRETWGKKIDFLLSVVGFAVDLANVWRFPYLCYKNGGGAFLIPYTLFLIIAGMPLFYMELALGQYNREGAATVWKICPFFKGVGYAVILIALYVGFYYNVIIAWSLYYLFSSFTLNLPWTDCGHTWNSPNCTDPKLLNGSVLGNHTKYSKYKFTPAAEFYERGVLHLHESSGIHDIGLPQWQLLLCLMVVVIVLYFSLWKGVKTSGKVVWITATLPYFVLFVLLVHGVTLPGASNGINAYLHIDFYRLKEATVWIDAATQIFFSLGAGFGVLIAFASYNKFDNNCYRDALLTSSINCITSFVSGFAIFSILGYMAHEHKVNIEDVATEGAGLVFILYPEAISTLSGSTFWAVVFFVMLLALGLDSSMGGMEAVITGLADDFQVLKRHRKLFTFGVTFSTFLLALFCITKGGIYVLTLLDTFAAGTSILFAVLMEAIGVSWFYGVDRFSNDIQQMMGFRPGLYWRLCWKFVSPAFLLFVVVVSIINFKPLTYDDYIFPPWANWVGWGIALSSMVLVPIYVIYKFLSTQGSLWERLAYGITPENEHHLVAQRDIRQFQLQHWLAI
In words: cell-based. The conditions noted are these: for Emax at 10 µM: read-out: NET IMAX, in parentheses: maximum efficacy at 10 μM.

Test [4] has as its target T3, Mu Opioid Receptor (MOR) (Homo sapiens, UniProt P35372). In words: biochemical. The note with it: for Emax: read-out: MOR EMAX (35S-GTPγS). For orientation: GTPγS is a poorly hydrolysed GTP analogue; its binding reports G protein activation.
In test [5] the target is T4, Kappa Opioid Receptor (KOR) (Homo sapiens, UniProt P41145).
T4 construct: membranes used
T4 sequence (P41145 whole entry): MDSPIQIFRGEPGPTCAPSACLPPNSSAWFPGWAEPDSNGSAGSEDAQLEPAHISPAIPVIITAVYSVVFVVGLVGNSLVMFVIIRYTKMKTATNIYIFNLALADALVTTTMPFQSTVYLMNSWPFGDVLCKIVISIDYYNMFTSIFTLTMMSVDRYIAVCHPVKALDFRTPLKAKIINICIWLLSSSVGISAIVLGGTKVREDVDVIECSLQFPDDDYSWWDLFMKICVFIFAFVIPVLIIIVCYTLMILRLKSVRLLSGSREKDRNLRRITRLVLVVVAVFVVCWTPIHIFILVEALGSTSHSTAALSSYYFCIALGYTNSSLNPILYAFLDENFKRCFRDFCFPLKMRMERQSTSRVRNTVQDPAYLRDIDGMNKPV
Format: biochemical.

Test [6] has as its target T1, Dopamine Transporter (DAT). The test can be described thus: biochemical. Format: binding.
For test [7], the target named is T4, Kappa Opioid Receptor (KOR). In words: biochemical. Format: binding.
For test [8], the target named is T5, Sigma-1 Receptor (σ1R) (Homo sapiens, UniProt Q99720).
T5 construct: HA (N); host or cells: HEK293 (ATCC CRL-1573), electroporated, G418-selected population; membranes used
T5 sequence (Q99720 whole entry): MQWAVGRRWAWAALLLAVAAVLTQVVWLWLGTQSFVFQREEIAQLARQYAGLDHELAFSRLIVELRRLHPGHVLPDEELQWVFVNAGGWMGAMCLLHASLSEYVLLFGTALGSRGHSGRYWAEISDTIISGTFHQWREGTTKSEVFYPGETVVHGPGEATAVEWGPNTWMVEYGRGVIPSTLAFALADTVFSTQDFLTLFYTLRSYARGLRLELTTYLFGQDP
In words: biochemical. Format: binding.

Test [9] addresses T6, Serotonin Transporter (SERT) (Homo sapiens, UniProt P31645).
T6 construct: HA (N); host or cells: HEK293 (ATCC CRL-1573), electroporated, G418-selected population
In words: cell-based.

Test [10] has as its system MOR. The conditions noted are these: cited from earlier work.
For test [11] the following is noted: cited from earlier work.
In test [12] the target is T4, Kappa Opioid Receptor (KOR). In words: biochemical. The conditions noted are these: for Emax at 10 µM: read-out: KOR EMAX, in parentheses: maximum efficacy at 10 μM.
Test [13] addresses T7, Delta Opioid Receptor (DOR) (Homo sapiens, UniProt P41143).
T7 construct: 3X-hemagglutinin (HA) (N); expressed in transfected cells; membranes used
Format: biochemical.

The target in test [14] is T6, Serotonin Transporter (SERT). In words: biochemical. It is filed as binding.
In test [15] the target is T3, Mu Opioid Receptor (MOR). The test can be described thus: biochemical. It is filed as binding.
In test [16] the target is T8, Cannabinoid Receptor Type 1 (CB1) (Homo sapiens, UniProt P21554).
T8 construct: membranes used
T8 sequence (P21554 whole entry): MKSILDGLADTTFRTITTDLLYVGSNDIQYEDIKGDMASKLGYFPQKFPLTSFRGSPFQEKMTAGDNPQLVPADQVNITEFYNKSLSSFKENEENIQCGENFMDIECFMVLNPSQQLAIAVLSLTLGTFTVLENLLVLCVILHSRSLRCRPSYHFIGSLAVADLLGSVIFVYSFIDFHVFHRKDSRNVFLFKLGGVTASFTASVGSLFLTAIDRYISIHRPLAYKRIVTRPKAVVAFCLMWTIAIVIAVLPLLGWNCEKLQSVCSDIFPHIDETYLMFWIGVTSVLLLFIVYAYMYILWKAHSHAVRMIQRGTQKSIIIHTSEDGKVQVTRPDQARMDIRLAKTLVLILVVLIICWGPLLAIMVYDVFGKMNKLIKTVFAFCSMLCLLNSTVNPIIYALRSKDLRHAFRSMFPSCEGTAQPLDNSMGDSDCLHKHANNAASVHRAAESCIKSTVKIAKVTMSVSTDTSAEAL
In words: biochemical.

T3 sequence (P35372 whole entry): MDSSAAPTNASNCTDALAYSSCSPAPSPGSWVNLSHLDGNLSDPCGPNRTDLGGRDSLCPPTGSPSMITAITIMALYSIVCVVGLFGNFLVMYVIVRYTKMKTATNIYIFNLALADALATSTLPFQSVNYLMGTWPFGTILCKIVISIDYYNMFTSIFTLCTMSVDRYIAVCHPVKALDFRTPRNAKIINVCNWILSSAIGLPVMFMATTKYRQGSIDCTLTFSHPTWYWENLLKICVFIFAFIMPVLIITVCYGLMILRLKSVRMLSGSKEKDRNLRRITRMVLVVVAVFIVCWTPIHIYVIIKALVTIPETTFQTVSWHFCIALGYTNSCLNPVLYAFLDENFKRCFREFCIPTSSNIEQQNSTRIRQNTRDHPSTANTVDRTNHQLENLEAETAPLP
T6 sequence (P31645 whole entry): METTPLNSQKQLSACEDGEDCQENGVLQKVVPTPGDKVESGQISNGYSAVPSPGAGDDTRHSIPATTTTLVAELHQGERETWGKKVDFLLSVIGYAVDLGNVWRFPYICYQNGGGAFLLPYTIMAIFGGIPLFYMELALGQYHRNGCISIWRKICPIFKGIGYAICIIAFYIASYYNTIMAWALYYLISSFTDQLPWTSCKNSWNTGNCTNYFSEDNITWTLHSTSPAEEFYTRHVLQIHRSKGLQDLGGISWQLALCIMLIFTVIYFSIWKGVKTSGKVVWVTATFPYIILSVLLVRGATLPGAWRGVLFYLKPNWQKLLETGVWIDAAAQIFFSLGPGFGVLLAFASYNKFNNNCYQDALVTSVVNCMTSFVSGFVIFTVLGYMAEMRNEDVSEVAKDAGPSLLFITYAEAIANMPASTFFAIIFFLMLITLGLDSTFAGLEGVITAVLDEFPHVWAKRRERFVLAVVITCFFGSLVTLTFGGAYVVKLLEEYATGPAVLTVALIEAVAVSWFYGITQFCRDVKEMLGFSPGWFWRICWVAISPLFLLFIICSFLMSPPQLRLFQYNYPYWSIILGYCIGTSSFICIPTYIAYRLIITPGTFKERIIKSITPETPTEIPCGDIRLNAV
T1 sequence (Q01959 whole entry): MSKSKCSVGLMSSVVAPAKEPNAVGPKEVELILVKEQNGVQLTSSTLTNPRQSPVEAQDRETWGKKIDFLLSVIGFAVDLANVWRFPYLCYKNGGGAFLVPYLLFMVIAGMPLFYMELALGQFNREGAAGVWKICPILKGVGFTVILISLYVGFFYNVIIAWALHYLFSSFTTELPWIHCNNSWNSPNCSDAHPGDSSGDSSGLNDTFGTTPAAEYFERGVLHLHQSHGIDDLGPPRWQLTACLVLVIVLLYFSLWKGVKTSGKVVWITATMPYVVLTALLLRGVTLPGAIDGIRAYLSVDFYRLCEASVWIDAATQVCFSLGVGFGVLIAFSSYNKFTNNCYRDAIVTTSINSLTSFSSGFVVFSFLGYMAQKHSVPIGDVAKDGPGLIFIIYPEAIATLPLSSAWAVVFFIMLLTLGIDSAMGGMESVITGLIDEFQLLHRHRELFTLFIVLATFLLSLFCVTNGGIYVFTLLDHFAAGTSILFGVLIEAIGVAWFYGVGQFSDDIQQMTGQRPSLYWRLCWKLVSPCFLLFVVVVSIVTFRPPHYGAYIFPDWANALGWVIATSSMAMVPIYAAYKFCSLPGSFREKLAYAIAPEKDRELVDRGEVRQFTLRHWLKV
T7 sequence (P41143 whole entry): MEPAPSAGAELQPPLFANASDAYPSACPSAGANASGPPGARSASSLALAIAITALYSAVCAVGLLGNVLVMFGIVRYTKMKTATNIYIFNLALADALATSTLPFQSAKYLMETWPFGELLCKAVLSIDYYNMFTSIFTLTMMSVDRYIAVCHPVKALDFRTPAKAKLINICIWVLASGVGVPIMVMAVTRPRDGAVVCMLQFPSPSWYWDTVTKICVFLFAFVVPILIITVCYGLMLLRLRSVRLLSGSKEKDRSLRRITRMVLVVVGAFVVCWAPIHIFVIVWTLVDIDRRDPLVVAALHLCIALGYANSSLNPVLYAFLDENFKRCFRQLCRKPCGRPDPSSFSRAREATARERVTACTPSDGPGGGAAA

Consider `CNCC[C@H](Oc1cccc2ccccc12)c1cccs1` [S-Duloxetine, S-duloxetine], for which, in test [1] (duloxetine 20 mg/kg intraperitoneal 10 minutes before buprenorphine 0.2 mg/kg subcutaneous, 52°C water, 2 hour time course), the “AUC increase of buprenorphine anti-nociception (tail flick)” value is 50.6%. In test [1] (duloxetine 20 mg/kg intraperitoneal 10 minutes before oxymorphone 0.3 mg/kg subcutaneous, p > 0.05), the “Effect on oxymorphone anti-nociception (tail flick)” value is “no effect”. Also, the “Effect on tail flick baselines” value in [1] (duloxetine 20 mg/kg intraperitoneal alone (followed by vehicle)) is “no effect”.

Take `COc1cccc(C2(O)CCCCC2CN(C)C)c1` (stereo not shown) [Tramadol]: in test [2], the half-maximal inhibitory concentration (IC50) is over 10 µM and the Emax at 10 µM is 22%. Besides, the Emax at 10 µM in test [3] came out at 57%. Besides, in test [4], the “MOR EMAX (35S-GTPγS)” value is 26 ± 6% and the Emax came to 25.5%. Moreover, the “KOR antagonist activity (in words)” value in [5] was “no KOR antagonist activity”. In test [6], the Ki was over 2000 nM. In test [7], this molecule displayed a Ki of 890 ± 33 nM.

`COc1ccc2c3c1O[C@H]1C(=O)CC[C@H]4[C@@H](C2)N(C)CC[C@]314` [Hydrocodone]: in test [8], the Ki was found to be 4 ± 1.3 µM and the “Potential new finding: σ1R binding (in words)” value is given as “KOR partial agonist; CB1 partial agonist; σ1R binding”.

Regarding `Fc1ccc(C(OCCN2CCN(CCCc3ccccc3)CC2)c2ccc(F)cc2)cc1` [GBR12909], the “SERT IMAX (transporter assay)” value in test [9] was 100 ± 0.4%.

As to `NC(=O)[C@H](Cc1ccccc1)NC(=O)[C@H](Cc1ccccc1)NC(=O)[C@@H]1CCCN1C(=O)[C@@H](N)Cc1ccc(O)cc1` [Endomorphin-2], in [4], the Emax was determined as 97 ± 2%.

Regarding `COc1ccc2c3c1O[C@H]1C(=O)CC[C@@]4(O)[C@@H](C2)N(C)CC[C@]314` [Oxycodone], the “operational efficacy τ in vitro” value in [10] is 3.3–5.2. Besides, the “operational efficacy τ in vivo” value in [11] was 20–39. Also, the Emax in test [4] was 90 ± 8%. Also, the “KOR antagonist activity (in words)” value in [5] was “no KOR antagonist activity”. In addition, in [12], the Emax at 10 µM came out at 9.6%.

As for `CN(C)C[C@H]1CCCC[C@]1(O)c1cccc(O)c1` [O-Desmethyl-Tramadol, O-desmethyl-tramadol], the “NET IMAX, in parentheses: maximum efficacy at 10 μM” value in test [3] is given as “(29) %”. Moreover, the IC50 in [3] (read-out: NET IC50 (transporter assay)) was over 2000 nM. Also, in [13], the “DOR EMAX (35S-GTPγS)” value was found to be 38 ± 14% and the “Potential new finding: activity at DOR (in words)” value is “DOR/KOR partial agonist”. The EC50 in test [13] (read-out: DOR EC50 (35S-GTPγS)) was 361 nM and 360 nM. Moreover, in test [12], the “KOR EMAX, in parentheses: maximum efficacy at 10 μM” value is “(5.9) %” and the “Potential new finding: activity at KOR (in words)” value is reported as “DOR/KOR partial agonist”. Besides, the EC50 in [12] (read-out: KOR EC50 (35S-GTPγS)) is over 2000 nM. For the same molecule, the inhibition constant Ki in test [7] (read-out: Target Binding Affinity Determined by Competition Radioligand Binding–KI, KOR) is over 2000 nM.

On to `CC[C@@H](c1cccc(O)c1)[C@@H](C)CN(C)C` [Tapentadol], for which the half-maximal inhibitory concentration (IC50) in test [2] is over 10 µM; in test [3], over 2000 nM; in test [9], over 2000 nM. Also, the Emax at 10 µM came to 19% in [2]; 61% in [3]; 13% in test [12]; 68% in test [9] (read-out: SERT IMAX, in parentheses: maximum efficacy at 10 μM). For the same molecule, the EC50 in [4] (MOR EC50 (35S-GTPγS)) is 1300 ± 530 nM; in [12] (KOR EC50 (35S-GTPγS)), over 2000 nM. For the same molecule, in test [4], the Emax was 73 ± 7%. The Ki in test [6] is over 2000 nM; in test [14], over 2000 nM; in test [8] it was 2.6 ± 0.41 µM; in test [15], 2100 ± 84 nM; in test [7], over 2000 nM. The “Potential new finding: activity at KOR (in words)” value in [12] is listed as “KOR partial agonist; σ1R binding”. The “Potential new finding: σ1R binding (in words)” value in test [8] is “KOR partial agonist; σ1R binding”. In addition, the “σ1R binding affinity fold vs. MOR affinity” value in test [8] was “nearly the same affinity as the MOR and approximately equal affinity to MOR and same”.

Consider `CN1CC[C@]23c4c5ccc(O)c4O[C@H]2[C@@H](O)C=C[C@H]3[C@H]1C5` [Morphine], for which, in [16], the EC50 is over 2000 nM and the “Potential new finding: activity at CB1 (in words)” value is listed as “CB1 partial agonist”. In addition, the Emax at 10 µM in [16] (read-out: CB1 EMAX, in parentheses: maximum efficacy at 10 μM) is over 41.5%. Moreover, the “operational efficacy τ in vivo” value in test [11] (ref [13]–[15]) was 20–39 and 39.

Regarding Buprenorphine, in [2], the “DAT IMAX, in parentheses: maximum efficacy at 10 μM” value is “(-67) %”; the DAT transport activation was 67.2%; the “Potential new finding: activity at DAT (in words)” value is “CB1 inverse agonist; Monoamine transporter activator”. Besides, in test [16], the “CB1 EMAX, in parentheses: maximum efficacy at 10 μM” value is on record as “(-38) %” and the “Potential new finding: activity at CB1 (in words)” value is “CB1 inverse agonist; Monoamine transporter activator”. Further, in test [3], the “NET IMAX, in parentheses: maximum efficacy at 10 μM” value is “(-26) %” and the “Potential new finding: activity at NET (in words)” value was “CB1 inverse agonist; Monoamine transporter activator”. In test [9], the “Potential new finding: activity at SERT (in words)” value is “CB1 inverse agonist; Monoamine transporter activator” and the “SERT IMAX, in parentheses: maximum efficacy at 10 μM” value is listed as “(-20) %”.

`CCC(=O)C(CC(C)N(C)C)(c1ccccc1)c1ccccc1` (stereo not shown) [methadone]: the “operational efficacy τ in vivo” value in test [11] is on record as 39.

The record behind these values is PMC6553708 (PLoS ONE, 2019).
